# Results as given in ChEMBL document CHEMBL3727348, “3-(aryl or heteroaryl) methyleneindolin-2-one derivatives as inhibitors of cancer stem cell pathway kinases for the treatment of cancer” (2014).
# Test system: ACHN
# Assay: Cytotoxic activity against human ACHN bulk cells incubated for 72 hrs by Cell-titer-Glo luminescence assay
# Assay type: functional, cell-based
# Settings: not given
row,SMILES,IC50 [nM]
1,CCN(CC)CCNC(=O)c1c(C)[nH]c(/C=C2\C(=O)Nc3ccc(-c4nc(-c5ccccc5)cs4)cc32)c1C,1640
2,Cc1cc(C)c(/C=C2\C(=O)Nc3ccc(-c4ccc5cn[nH]c(=O)c5c4)cc32)[nH]1,1120
3,Cc1cncc(-c2cccc3c2NC(=O)/C3=C\c2[nH]c(C)cc2C)c1,16000
4,Cc1[nH]c(/C=C2\C(=O)Nc3ccc(-c4csc(-c5ccccc5)n4)nc32)c(C)c1C(=O)NCCN1CCCC1,1520
5,CCN(CC)CCNC(=O)c1c(C)[nH]c(/C=C2\C(=O)Nc3c2cccc3-c2ccncc2)c1C,6390
6,CCN(CC)CCNC(=O)c1c(C)[nH]c(/C=C2\C(=O)Nc3ccc(-c4n[nH]c5ccccc45)cc32)c1C,4310
7,CCN(CC)CCNC(=O)c1c(C)[nH]c(/C=C2\C(=O)Nc3cccc(-c4ccc(-c5ccccc5)cc4)c32)c1C,1600

# Test system: FaDu
# Assay: Cytotoxic activity against human FADU cancer stem cells incubated for 72 hrs by Cell-titer-Glo luminescence assay
# Assay type: functional, cell-based
# Settings: not given
row,SMILES,IC50 [nM]
1,CCN(CC)CCNC(=O)c1c(C)[nH]c(/C=C2\C(=O)Nc3ccc(-c4nc(-c5ccccc5)cs4)cc32)c1C,270
2,Cc1cc(C)c(/C=C2\C(=O)Nc3ccc(-c4ccc5cn[nH]c(=O)c5c4)cc32)[nH]1,2960
3,Cc1[nH]c(/C=C2\C(=O)Nc3ccc(-c4csc(-c5ccccc5)n4)nc32)c(C)c1C(=O)NCCN1CCCC1,170
4,CCN(CC)CCNC(=O)c1c(C)[nH]c(/C=C2\C(=O)Nc3c2cccc3-c2ccncc2)c1C,4410
5,CCN(CC)CCNC(=O)c1c(C)[nH]c(/C=C2\C(=O)Nc3ccc(-c4n[nH]c5ccccc45)cc32)c1C,10200
6,CCN(CC)CCNC(=O)c1c(C)[nH]c(/C=C2\C(=O)Nc3cccc(-c4ccc(-c5ccccc5)cc4)c32)c1C,280

# Biological target: T1, Ribosomal protein S6 kinase (Homo sapiens) (UniProt P51812+Q9UBS0+O75676+Q15349+O75582+P23443+Q9UK32+Q15418)
# Assay: Inhibition of RPS6 kinase in human HeLa cells assessed as p-RPS6 Ser240/244 phosphorylation level at 5 uM incubated for 6 hrs by SDS-PAGE based chemiluminescence assay
# Assay type: cell-based
# Design: scale not given: the % may be the effect or the level left
# Settings: not given
row,SMILES,Activity [%]
1,Cc1cc(C)c(/C=C2\C(=O)Nc3ccc(-c4ccc5cn[nH]c(=O)c5c4)cc32)[nH]1,24
2,Cc1cncc(-c2cccc3c2NC(=O)/C3=C\c2[nH]c(C)cc2C)c1,75
3,Cc1[nH]c(/C=C2\C(=O)Nc3ccc(-c4csc(-c5ccccc5)n4)nc32)c(C)c1C(=O)NCCN1CCCC1,51
4,CCN(CC)CCNC(=O)c1c(C)[nH]c(/C=C2\C(=O)Nc3c2cccc3-c2ccncc2)c1C,65

# More lines, now with the values ahead:
row,Activity [%],SMILES
1,64,CCN(CC)CCNC(=O)c1c(C)[nH]c(/C=C2\C(=O)Nc3ccc(-c4nc(-c5ccccc5)cs4)cc32)c1C
2,26,CCN(CC)CCNC(=O)c1c(C)[nH]c(/C=C2\C(=O)Nc3ccc(-c4n[nH]c5ccccc45)cc32)c1C
3,23,CCN(CC)CCNC(=O)c1c(C)[nH]c(/C=C2\C(=O)Nc3cccc(-c4ccc(-c5ccccc5)cc4)c32)c1C

# Biological target: AMP-activated protein kinase, AMPK (Homo sapiens) (UniProt P54646+O43741+P54619+Q9UGJ0+Q9Y478+Q13131+Q9UGI9)
# Assay: Inhibition of AMPK in human HeLa cells assessed as kinase phosphorylation level at 5 uM incubated for 6 hrs by SDS-PAGE based chemiluminescence assay
# Assay type: cell-based
# Design: scale not given: the % may be the effect or the level left
# Settings: not given
row,SMILES,Activity [%]
1,Cc1cc(C)c(/C=C2\C(=O)Nc3ccc(-c4ccc5cn[nH]c(=O)c5c4)cc32)[nH]1,39
2,Cc1cncc(-c2cccc3c2NC(=O)/C3=C\c2[nH]c(C)cc2C)c1,103
3,Cc1[nH]c(/C=C2\C(=O)Nc3ccc(-c4csc(-c5ccccc5)n4)nc32)c(C)c1C(=O)NCCN1CCCC1,41
4,CCN(CC)CCNC(=O)c1c(C)[nH]c(/C=C2\C(=O)Nc3c2cccc3-c2ccncc2)c1C,56

# Next, values leading:
row,Activity [%],SMILES
1,12,CCN(CC)CCNC(=O)c1c(C)[nH]c(/C=C2\C(=O)Nc3ccc(-c4nc(-c5ccccc5)cs4)cc32)c1C
2,22,CCN(CC)CCNC(=O)c1c(C)[nH]c(/C=C2\C(=O)Nc3ccc(-c4n[nH]c5ccccc45)cc32)c1C
3,8,CCN(CC)CCNC(=O)c1c(C)[nH]c(/C=C2\C(=O)Nc3cccc(-c4ccc(-c5ccccc5)cc4)c32)c1C

# Test system: ACHN
# Assay: Cytotoxic activity against human ACHN cancer stem cells incubated for 72 hrs by Cell-titer-Glo luminescence assay
# Assay type: functional, cell-based
# Settings: not given
row,SMILES,IC50 [nM]
1,Cc1cc(C)c(/C=C2\C(=O)Nc3ccc(-c4ccc5cn[nH]c(=O)c5c4)cc32)[nH]1,260
2,Cc1cncc(-c2cccc3c2NC(=O)/C3=C\c2[nH]c(C)cc2C)c1,32000
3,Cc1[nH]c(/C=C2\C(=O)Nc3ccc(-c4csc(-c5ccccc5)n4)nc32)c(C)c1C(=O)NCCN1CCCC1,400
4,CCN(CC)CCNC(=O)c1c(C)[nH]c(/C=C2\C(=O)Nc3c2cccc3-c2ccncc2)c1C,4990
5,CCN(CC)CCNC(=O)c1c(C)[nH]c(/C=C2\C(=O)Nc3ccc(-c4n[nH]c5ccccc45)cc32)c1C,1310
6,CCN(CC)CCNC(=O)c1c(C)[nH]c(/C=C2\C(=O)Nc3cccc(-c4ccc(-c5ccccc5)cc4)c32)c1C,330

# Test system: FaDu
# Assay: Cytotoxic activity against human FADU bulk cells incubated for 72 hrs by Cell-titer-Glo luminescence assay
# Assay type: functional, cell-based
# Settings: not given
row,SMILES,IC50 [nM]
1,CCN(CC)CCNC(=O)c1c(C)[nH]c(/C=C2\C(=O)Nc3ccc(-c4nc(-c5ccccc5)cs4)cc32)c1C,1180
2,Cc1cc(C)c(/C=C2\C(=O)Nc3ccc(-c4ccc5cn[nH]c(=O)c5c4)cc32)[nH]1,2550
3,Cc1cncc(-c2cccc3c2NC(=O)/C3=C\c2[nH]c(C)cc2C)c1,26400
4,Cc1[nH]c(/C=C2\C(=O)Nc3ccc(-c4csc(-c5ccccc5)n4)nc32)c(C)c1C(=O)NCCN1CCCC1,1730
5,CCN(CC)CCNC(=O)c1c(C)[nH]c(/C=C2\C(=O)Nc3c2cccc3-c2ccncc2)c1C,6740
6,CCN(CC)CCNC(=O)c1c(C)[nH]c(/C=C2\C(=O)Nc3ccc(-c4n[nH]c5ccccc45)cc32)c1C,2850
7,CCN(CC)CCNC(=O)c1c(C)[nH]c(/C=C2\C(=O)Nc3cccc(-c4ccc(-c5ccccc5)cc4)c32)c1C,1110

# Test system: A549
# Assay: Cytotoxic activity against human A549 bulk cells incubated for 72 hrs by Cell-titer-Glo luminescence assay
# Assay type: functional, cell-based
# Settings: A549, 72 h
row,SMILES,IC50 [µM]
1,CCN(CC)CCNC(=O)c1c(C)[nH]c(/C=C2\C(=O)Nc3ccc(-c4nc(-c5ccccc5)cs4)cc32)c1C,4.74
2,Cc1cc(C)c(/C=C2\C(=O)Nc3ccc(-c4ccc5cn[nH]c(=O)c5c4)cc32)[nH]1,1.4
3,Cc1cncc(-c2cccc3c2NC(=O)/C3=C\c2[nH]c(C)cc2C)c1,21.2
4,Cc1[nH]c(/C=C2\C(=O)Nc3ccc(-c4csc(-c5ccccc5)n4)nc32)c(C)c1C(=O)NCCN1CCCC1,1.43
5,CCN(CC)CCNC(=O)c1c(C)[nH]c(/C=C2\C(=O)Nc3c2cccc3-c2ccncc2)c1C,6.85
6,CCN(CC)CCNC(=O)c1c(C)[nH]c(/C=C2\C(=O)Nc3ccc(-c4n[nH]c5ccccc45)cc32)c1C,3.02
7,CCN(CC)CCNC(=O)c1c(C)[nH]c(/C=C2\C(=O)Nc3cccc(-c4ccc(-c5ccccc5)cc4)c32)c1C,5.09

# Biological target: T1, Ribosomal protein S6 kinase (Homo sapiens)
# Assay: Inhibition of RPS6 kinase in human HeLa cells assessed as p-RPS6 Ser235/236 phosphorylation level at 5 uM incubated for 6 hrs by SDS-PAGE based chemiluminescence assay
# Assay type: cell-based
# Design: scale not given: the % may be the effect or the level left
# Settings: not given
row,SMILES,Activity [%]
1,Cc1cc(C)c(/C=C2\C(=O)Nc3ccc(-c4ccc5cn[nH]c(=O)c5c4)cc32)[nH]1,1
2,Cc1cncc(-c2cccc3c2NC(=O)/C3=C\c2[nH]c(C)cc2C)c1,74
3,Cc1[nH]c(/C=C2\C(=O)Nc3ccc(-c4csc(-c5ccccc5)n4)nc32)c(C)c1C(=O)NCCN1CCCC1,13
4,CCN(CC)CCNC(=O)c1c(C)[nH]c(/C=C2\C(=O)Nc3c2cccc3-c2ccncc2)c1C,60

# Other lines, results leading:
row,Activity [%],SMILES
1,21,CCN(CC)CCNC(=O)c1c(C)[nH]c(/C=C2\C(=O)Nc3ccc(-c4nc(-c5ccccc5)cs4)cc32)c1C
2,4,CCN(CC)CCNC(=O)c1c(C)[nH]c(/C=C2\C(=O)Nc3ccc(-c4n[nH]c5ccccc45)cc32)c1C
3,2,CCN(CC)CCNC(=O)c1c(C)[nH]c(/C=C2\C(=O)Nc3cccc(-c4ccc(-c5ccccc5)cc4)c32)c1C

# Test system: A549
# Assay: Cytotoxic activity against human A549 cancer stem cells incubated for 72 hrs by Cell-titer-Glo luminescence assay
# Assay type: functional, cell-based
# Settings: A549, 72 h
row,SMILES,IC50 [µM]
1,CCN(CC)CCNC(=O)c1c(C)[nH]c(/C=C2\C(=O)Nc3ccc(-c4nc(-c5ccccc5)cs4)cc32)c1C,4.28
2,Cc1cc(C)c(/C=C2\C(=O)Nc3ccc(-c4ccc5cn[nH]c(=O)c5c4)cc32)[nH]1,3
3,Cc1cncc(-c2cccc3c2NC(=O)/C3=C\c2[nH]c(C)cc2C)c1,32
4,Cc1[nH]c(/C=C2\C(=O)Nc3ccc(-c4csc(-c5ccccc5)n4)nc32)c(C)c1C(=O)NCCN1CCCC1,2.47
5,CCN(CC)CCNC(=O)c1c(C)[nH]c(/C=C2\C(=O)Nc3c2cccc3-c2ccncc2)c1C,12.6
6,CCN(CC)CCNC(=O)c1c(C)[nH]c(/C=C2\C(=O)Nc3ccc(-c4n[nH]c5ccccc45)cc32)c1C,5.65
7,CCN(CC)CCNC(=O)c1c(C)[nH]c(/C=C2\C(=O)Nc3cccc(-c4ccc(-c5ccccc5)cc4)c32)c1C,4.32
